The values below come from patent US6669951B2, “Compositions and methods for enhancing drug delivery across and into epithelial tissues” (CellGate, Inc., priority 1999, dated 2003).

The subject of series [1] is squamous epithelia of the oral cavity. As to the kind of experiment: Penetration into squamous epithelia of the oral cavity. It is filed as in vivo, mouse. The settings on record: fifteen minutes. The text has this:
To determine whether CellGate transporters could enter the squamous epithelia of the oral cavity, mice were anesthetized with Nembutal, their heads tipped to one side and solutions of the biotinylated peptides were placed in their mouths. After fifteen minutes the liquid was removed by pipette.
The capacity of the transporters to enter the squamous epithelial layers of the oral cavity was examined. A mouse was anesthetized, its head was tipped so that a solution of biotinylated r9 could be administered. The animal was kept in this position for fifteen minutes, at which time it was sacrificed, and the tongue and cheek were dissected, frozen, sectioned, stained with streptavidin-fluorescein, and counterstained with propidium iodide.

For series [2], the system named is epithelia of the gastrointestinal tract. Kind of series: Gastrointestinal absorption protocol (histology). It is filed as in vivo, mouse. How it is done:
Experiments were performed on 8- to 10-week-old female Swiss Webster mice purchased from Taconic (Germantown, N.Y.). Mice were anesthetized with Nembutal and a midline incision was made along the abdomen. Intestines were measured, tied off at both ends of the desired section with sutures, and biotinylated peptides were injected into the lumen (approximately 100λ/inch). After a fifteen minute incubation, the tissue was removed and the lumen was gently washed with PBS.
Immediately following incubation with biotinylated peptides, the anesthetized rodents were sacrificed by cervical dislocation and the tied off sections of the GI tract were removed. The lumens of the various sections were filled with OCT using a plastic tipped syringe, immersed in OCT filled boats, and snap frozen in a 2-methyl-butane/dry ice solution. Frozen sections were allowed to warm slightly and 2 mm thick sagital cuts were made using a steel razor blade. The cuts were placed into OCT molds and snap frozen in a 2-methyl-butane/dry ice solution. Sections (5 μm) were cut on the cryostat, fixed in acetone at 4° C. for 10 minute, and allowed to air dry. After rehydration in PBS for 5 minutes, sections were blocked with normal horse serum, washed, incubated with streptavidin-FITC (20 μg/ml) for 30 minutes, washed, and mounted with mounting medium containing propidium iodide (PI).
After fifteen minutes of exposure, the relevant section of tissue was dissected, frozen, sectioned, and stained with Streptavidin fluorescein to define the location of the biotinylated peptide, and propidium iodide to counterstain all the nuclei in the section.

Series [3] relates to CD3+ T cells in inflamed skin. The conditions noted are these: mouse, in vivo.
The test system of series [4] is human skin grafts on SCID mice. The settings on record: in vivo. How it is done: Samples (100 μl) were applied as a liquid within excipient and prevented from dispersing by a Vaseline™ barrier and allowed to penetrate for fifteen minutes. At the end of this period animal was sacrificed, the relevant section of skin was excised, embedded in mounting medium (OCT) and frozen. […] Slides were analyzed by fluorescent microscopy.

Series [5] concerns skin of nude mice. Kind of series: Penetration of biotinylated conjugates into skin of nude mice (streptavidin staining). The settings on record: mouse, in vivo. The method, then:
Samples (100 μl) were applied as a liquid without excipient, prevented from dispersing by a Vaseline™ barrier, and allowed to penetrate for fifteen minutes. At the end of this period the animal was sacrificed, the relevant sections of skin were excised, embedded in mounting medium (OCT), and frozen. Frozen sections (5 microns) were cut using a cryostat, collected on slides, and stained with fluorescently labeled streptavidin (Vector Laboratories, Burlingame, Calif.). The slides were fixed in acetone at 4° C. for ten minutes, air dried, soaked in PBS for five minutes, blocked with normal goat serum for five minutes, and washed with PBS for five minutes. The section was stained by incubation with fluorescently labeled streptavidin at 30 μg/ml for thirty minutes, washed with PBS, counterstained with propidium iodide (1 μg/ml) for two minutes, and the section was mounted with Vectashield™ mounting media. Slides were analyzed by fluorescent microscopy. Parallel studies were done using streptavidin-horse radish peroxidase rather than fluorescein-streptavidin. The biotinylated peptide was visualized by treatment of the sections with the horseradish peroxidase substrate diaminobenzadine, and visualization with light microscopy.
Alternatively, sample (100 μl) was applied as a liquid without excipient and prevented from evaporating by wrapping plastic wrap over the sample sealed with Vaseline™. […] At the end of this period animal was sacrificed, the relevant section of skin was excised, embedded in mounting medium (OCT) and frozen. […] Slides were analyzed by fluorescent microscopy.
At the end of this period animal was sacrificed, the relevant section of skin was excised, embedded in mounting medium (OCT) and frozen. […] Slides were analyzed by fluorescent microscopy
(§1) At the end of this period animal was sacrificed, the relevant section of skin was excised, embedded in mounting medium (OCT) and frozen. […] Slides were analyzed by fluorescent microscopy.
as §1

The next series has as its system skin of Balb/C mice. The settings on record: mouse, in vivo. The method, then: Slides were analyzed by fluorescent microscopy.
Series [6] in a line: Drug blood levels after intracolonic injection (LC MS MS). The conditions noted are these: intracolonic in PBS. It is filed as in vivo, Wistar rats. The method, then: Wistar rats, females of approximately 200-300 g (Simonsen, Gilroy, Calif.), were anesthetized, their abdomens were shaved, midline incisions were made, and a one-half inch section of the ascending colon in each animal was tied off with sutures. Taxol and cyclosporin (5 mg/kg) were injected as solutions in a 1:1 v/v Cremophor EL:ethanol mixture, whereas equivalent molar amounts of the r7 conjugates were injected in PBS. In all cases, the volume injected was approximately 500λ. The colon was placed back into the cavity, and the incision was closed using sutures.
Clotting was inhibited by transferring the blood to glass tubes containing 100λ of 0.5% EDTA, and the blood was frozen.
Either taxol or cyclosporin was extracted from the whole blood using a modification of literature procedures. Briefly, whole blood (100λ) was transferred to a screw capped glass tube containing five mls of diethyl ether. The sample was vortexed vigorously for two minutes, centrifuged, and frozen in dry ice/methanol. The ethereal layer was transferred to another glass tube and the ether was evaporated. […] Samples were placed into a Perkin-Elmer series 200 autosampler and sequencially injected onto a C18 reverse column at 70° C. connected to a Shimadzu HPLC system, eluted with 70% methanol, 30% aqueous ammonium formate buffer, and the effluent was analyzed on a PE Sciex API 3000 tandem mass spectrometer.

The nature of series [7]: Half-life / release of conjugate in buffer. It is filed as physicochemical. The settings on record: for half-life: buffer.
Series [8] deals with IL-2 secretion by Jurkat cells. As to the kind of experiment: Inhibition of IL-2 secretion, PMA/ionomycin stimulated. It is filed as cell-based, human. How it is done:
T cells subsequently were stimulated to produce IL-2 by addition of 10 ng/ml PMA (Sigma, St. Louis, Mo.) and 1 μM ionomycin (CalBiochem, San Diego, Calif.). Cultures were incubated overnight at 37° C. and supernatants were collected and IL-2 was measured using a fluorescent ELISA. Briefly, plates were coated with 4 μg/ml anti-human IL-2 antibody (BD Pharmingen, San Diego, Calif.), blocked with PBS containing 10% FBS for 1 hour at room temperature, washed, and supernatants added and incubated for 1 hour. Media was removed and biotinylated anti-human IL-2 (1.6 μg/ml), was added for one hour. The plates were washed, and then europium labeled streptavidin (0.04 ng/ml) was added for one hour. After another wash, enhancement solution was added and the resulting fluorescence was measured using a Wallac plate reader (Wallac, Turku, Finland).
See R. Wiskocil, et al., J Immunol 134, 1599-603 (1985).

For series [9], the system named is ear inflammation in Balb/c mice. As to the kind of experiment: Murine contact dermatitis (DNFB), ear inflammation. It is filed as in vivo, mouse. The method, then:
Balb/c (6-7 weeks) mice were painted on the abdomen with 100 μl of 0.7% DNFB in acetone olive oil (95:5). Three days later both ears of the animals were restimulated with 0.5% DNFB in acetone. […] Ear inflammation was measured 24 hours after restimulation using a spring loaded caliper. The percent reduction of inflammation was calculated using the following formula […], where t=thickness of the treated ear, n=the thickness of a normal untreated ear, and u=thickness of an inflamed ear without any treatment. N=20 animals in each group.

The conditions of series [10]: cited from earlier work.
In series [11] the test system is skin of nude mice. Kind of series: Penetration of Cu-DTPA complexes into skin of nude mice. The conditions noted are these: 1 μM to 1 mM, abdominal region, 15, 30, 45 minutes. It is filed as in vivo, mouse.
From the text: As controls, an equimolar amount of the Cu-DTPA complex was spotted onto the abdominal region.

Like-named read-outs stand apart in the source and are kept apart here.

Consider `N=C(N)NCCC[C@@H](NC(=O)[C@@H](CCCNC(=N)N)NC(=O)[C@@H](CCCNC(=N)N)NC(=O)[C@@H](CCCNC(=N)N)NC(=O)[C@@H](CCCNC(=N)N)NC(=O)[C@@H](CCCNC(=N)N)NC(=O)[C@@H](CCCNC(=N)N)NC(=O)[C@@H](CCCNC(=N)N)NC(=O)[C@@H](CCCNC(=N)N)NC(=O)CCCCCNC(=O)CCCC[C@@H]1SC[C@@H]2NC(=O)N[C@@H]21)C(N)=O` [bio aca r9 CONH2], for which, in series [1], the “penetration into cheek and tongue” value is “quickly and efficiently penetrated multiple layers of the epithelia”. Moreover, the staining of duodenum result in series [2] (100 μM injected into lumen, fifteen minutes) is “no detectable staining over background was observed”. In series [2] (100 μM, fifteen minutes), the “staining of ascending and transverse colon” value is “stained all surface areas of the villi, and penetrated several cell layers”; the staining of ileum entry was “first sign of uniform staining”; the staining of jejunum entry is on record as “Poor staining”. Further, in series [2] (mouse, in vivo), the “uptake along the GI tract” value is given as “uptake increasing with distance from the gastric pylorus”.
Consider `C/C=C/C[C@@H](C)[C@@H](OC(=O)CSC[C@H](NC(=O)[C@@H](CCCNC(=N)N)NC(=O)[C@@H](CCCNC(=N)N)NC(=O)[C@@H](CCCNC(=N)N)NC(=O)[C@@H](CCCNC(=N)N)NC(=O)[C@@H](CCCNC(=N)N)NC(=O)[C@@H](CCCNC(=N)N)NC(=O)[C@@H](CCCNC(=N)N)NC(=O)CCCCCNC(=O)CCCC[C@@H]1SC[C@@H]2NC(=O)N[C@@H]21)C(N)=O)[C@H]1C(=O)N[C@@H](CC)C(=O)N(C)CC(=O)N(C)[C@@H](CC(C)C)C(=O)N[C@@H](C(C)C)C(=O)N(C)[C@@H](CC(C)C)C(=O)N[C@@H](C)C(=O)N[C@H](C)C(=O)N(C)[C@@H](CC(C)C)C(=O)N(C)[C@@H](CC(C)C)C(=O)N(C)[C@@H](C(C)C)C(=O)N1C` [biotin r7 CsA, B-aca-r7-Cys-O-acyl-Cyclosporin A], for which, in series [3], the “presence in infiltrating T cells of inflamed skin” value was “found in all CD3[+] T cells in the tissue”. In series [4], the “penetration into human skin” value is “penetrated human epidermis and dermis”.
On to `O=C(O)CCCC[C@@H]1SC[C@@H]2NC(=O)N[C@@H]21` [biotin, reference compound], for which the “penetration into skin (streptavidin staining)” value with skin of nude mice [5] was “no staining was apparent”. Further, the penetration into skin result in the series with skin of Balb/C mice is recorded as “no staining was apparent”. For the same molecule, the “penetration into human skin” value in series [4] is “no staining was apparent”.
In general, half-life refers to the time in which the quantity being followed falls by half. In the case of `CC(=O)N[C@@H](CSCC(=O)O[C@@H](C(=O)O[C@H]1C[C@@]2(O)[C@@H](OC(=O)c3ccccc3)[C@@H]3[C@]4(OC(C)=O)CO[C@@H]4C[C@H](O)[C@@]3(C)C(=O)[C@H](OC(C)=O)C(=C1C)C2(C)C)[C@@H](NC(=O)c1ccccc1)c1ccccc1)C(=O)N[C@H](CCCNC(=N)N)C(=O)N[C@H](CCCNC(=N)N)C(=O)N[C@H](CCCNC(=N)N)C(=O)N[C@H](CCCNC(=N)N)C(=O)N[C@H](CCCNC(=N)N)C(=O)N[C@H](CCCNC(=N)N)C(=O)N[C@H](CCCNC(=N)N)C(N)=O` [compound 14], the “blood levels of taxol” value in series [6] is given as “did not result in significant blood levels of taxol within five hours”. Moreover, the half-life in series [7] (PBS, pH 7.4 at 37° C., read-out: half life (converted)) is 5 h.
With `C/C=C/C[C@@H](C)[C@@H](OC(=O)CN(Cc1ccccc1)C(=O)CNCC(=O)N[C@@H](CCCNC(=N)N)C(=O)N[C@@H](CCCNC(=N)N)C(=O)N[C@@H](CCCNC(=N)N)C(=O)N[C@@H](CCCNC(=N)N)C(=O)N[C@@H](CCCNC(=N)N)C(=O)N[C@@H](CCCNC(=N)N)C(=O)N[C@@H](CCCNC(=N)N)C(N)=O)[C@H]1C(=O)N[C@@H](CC)C(=O)N(C)CC(=O)N(C)[C@@H](CC(C)C)C(=O)N[C@@H](C(C)C)C(=O)N(C)[C@@H](CC(C)C)C(=O)N[C@@H](C)C(=O)N[C@H](C)C(=O)N(C)[C@@H](CC(C)C)C(=O)N(C)[C@@H](CC(C)C)C(=O)N(C)[C@@H](C(C)C)C(=O)N1C` [releasable R7 CsA], in series [8] (added 12 hours prior to PMA/ionomycin), the “inhibition of IL-2 secretion” value is listed as “dose dependent inhibition was observed”. Moreover, the “EC50 relative to CsA dissolved in alcohol” value in [8] (added at the same time) was “approximately two”. Moreover, the “reduction in ear inflammation” value in [9] (0.01% topical) is 40.9%±3.3; in series [9] (0.1% topical) it was 64.8%±4.0; in series [9] (1% topical, 1, 5 and 20 h after restimulation, measured 24 hours), 73.9%±4.0. For the same molecule, the “reduction in inflammation in the untreated ear” value in series [9] (1%) is given as “No reduction in inflammation was seen in the untreated ear”. Besides, the pH dependent stability entry in [7] (absence of serum) was “stable at acidic pH, but labile at physiological pH in the absence of serum”. For the same molecule, the half-life in series [7] (PBS pH 7.4 (37° C. where stated), read-out: half-life) was 1.5 h.
In the case of `CC(=O)O[C@@]12CO[C@@H]1C[C@H](O)[C@@]1(C)C(=O)[C@H](O)C3=C(C)[C@@H](OC(=O)[C@H](O)[C@@H](NC(=O)OC(C)(C)C)c4ccccc4)C[C@@](O)([C@@H](OC(=O)c4ccccc4)[C@H]21)C3(C)C` [taxotere], the water solubility in [10] is 6 to 7 µg/mL.
In the case of “Copper-diethylenetriaminepentaacetic Acid Complex [Cu-DTPA]”, in the series with skin of nude mice [11], the “colour on skin after wiping off” value is “not where the Cu-DTPA alone was spotted”.
